The text below walks through data of US11534377B2, “Hair growth agent” (KOBAYASHI PHARMACEUTICAL CO., LTD., priority 2016, dated 2022).

The test system of experiment [1] is transplanted mice (hair follicles of haired mice transplanted into the back of nude mice). In words: Hair shaft growth in nude mice transplanted with hair follicles of haired mice (Example 1). Format: in vivo. Particulars: for Hair shaft growth rate: topical 4 times per day. As for the experimental part: Hair follicles (surgically prepared) of haired mice were transplanted into the back of nude mice (from Sankyo Labo Service Corporation, Inc.) to produce transplanted mice manipulated such that each hair can be distinguished and a plurality of hair cycles can be observed. First, a 50% ethanol aqueous solution (12.5 μl, not containing the agent) was applied to the transplanted mice 4 times per day during new hair growth in the first hair cycle to obtain reference data of a hair cycle. After the hair had shed following the end of the first hair cycle, a 50% ethanol aqueous solution (12.5 μl) containing a predetermined amount of the agent was applied to the mice 4 times per day to obtain data on effects of the agent. After the hair had shed following the end of the second hair cycle, a 50% ethanol aqueous solution (12.5 μl) containing the agent in the same amount as that in the second hair cycle was applied to the mice in a similar manner to the second hair cycle to obtain reproducibility data on effects of the agent. As the agent, D-chiro-inositol (from Wako Pure Chemical Industries Ltd.) and its stereoisomers as chiro-inositol, L-chiro-inositol (from Tokyo Chemical Industry Co., Ltd.), myo-inositol (from Wako Pure Chemical Industries Ltd.), allo-inositol (cis-1,2,3,4-trans-5,6-cyclohexaneheaxol) (from Tokyo Chemical Industry Co., Ltd.), epi-inositol (cis-1,2,3,4,5-trans-6-cyclohexanehexaol) (from Tokyo Chemical Industry Co., Ltd.), muco-inositol (cis-1,2,4,5-trans-3,6-cyclohexanehexaol) (from Tokyo Chemical Industry Co., Ltd.), and scyllo-inositol (cis-1,3,5-trans-2,4,6-cyclohexanehexaol) (from Tokyo Chemical Industry Co., Ltd.) were used. For each agent solution, the lengths of hair shafts were measured every 2 to 3 days, an average length of hair shafts that changed day by day was plotted as one dot at each time point in a graph, and a similar plotting was repeated for 3 to 4 mice. The results were shown in Tables 1 to 14 and FIGS. 1 to 14.

The next experiment concerns obese mice. Particulars: insulin sensitivity increasing substances, PTL 2; cited from earlier work.
The subject of experiment [2] is crab-eating macaque (Macaca fascicularis). In words: New hair growth test in monkey (Example 4). It counts as in vivo. Particulars: 1 wt % in 50% ethanol, once/day 150 μl, 8 weeks, sparse hair region of head; number of hair before application = 100%. The text has this: A crab-eating macaque (Macaca fascicularis) is a monkey (class: Mammalia, order: Primates, family: Cercopithecidae, genus: Macaca) that has many similarities to humans, such as the morphology of the temporomandibular joint, and is frequently employed as a laboratory animal for morphological studies and medication studies due to its easy breeding and rearing. The crab-eating macaque is known for the replacement of the body hair in a six-month cycle in a year. Among aged female monkeys that had babies repeatedly and aged male monkeys of low social status, individuals with observed symptoms of hair thinning or sparse hair emerge with low frequency. […] In this Example, to an aged crab-eating macaque (19 years of age, male) having sparse body hair of the head, a test solution A in which D-chiro-inositol (from Wako Pure Chemical Industries Ltd.) was dissolved in 50% ethanol at a concentration of 1 wt % and a test solution B in which myo-inositol was dissolved in 50% ethanol at a concentration of 1 wt % were applied every day to about 4 cm^2-sparse hair regions (2 cm×2 cm) in both left and right sides across the median line of the head of the macaque. The application (once/day, 150 μl) was performed over 8 weeks, and 50% ethanol was applied as a negative control. At the end of 8 weeks, hair shafts in the applied regions were cut with hair clippers while leaving 2 to 3 mm from pores toward the outside of the body, and the total number of hair protruded from the pores in the applied regions was counted. A new hair growth rate was calculated as an increase rate in the number of hair at the end of 8 weeks, relative to the number of hair protruded from pores in the same regions before the application at the start of the test as 100%.

In a further experiment the test system is hair papilla cells. In words: Hair papilla cell proliferation test by two-dimensional culture (Example 5). It counts as cell-based, C57BL/6N mouse. As to conditions: final concentration 0.1 wt %, cultured for 3 days; FIG. 18. The text has this:
Hair papilla cells transmit new hair growth signals to hair matrix cells via signaling substances to activate hair matrix cells, thereby controlling processes of new hair growth and hair elongation. Accordingly, the hair shaft growth promoting activity and the like of test substances can be evaluated from a proliferation rate of hair papilla cells. In this Example, the skin of the whisker region was taken from a C57BL/6N mouse and hair papillae were harvested from isolated whisker follicles under a stereo microscope. Six hair papillae were fixed to the bottom surface of a 60 mm-plastic petri dish (from Sumitomo Bakelite Co., Ltd.), and the primary culture was performed at 37° C. in the presence of 5% CO2 by using a hair papilla cell culture medium in which 2% FCS (fetal calf serum), 0.6% ITT (insulin-transferrin-triiodothyronine mixture), 1% BPE (bovine pituitary extract), and 0.6% Cyp (cyproterone solution) were added to a PCGM base medium. Afterwards, the medium was replaced every 2 to 3 days and subculturing was repeated about every two weeks. In this experiment, hair papilla cells at passage 3 or less were used. […] The number of cells after culturing for 3 days was counted by using a hemocytometer, and proliferation rates in test solution A and the test solution B were calculated relative to 100% for a proliferation rate in the negative control as 100%.

In experiment [3] the test system is hair papilla cell spheroids. In words: Hair papilla cell proliferation test by three-dimensional culture (Example 6). Format: cell-based, C57BL/6N mouse. As to conditions: final concentrations 0.05 wt %, 0.1 wt %, and 1 wt %, cultured for 3 days; FIG. 19. As to the method: In this Example, hair papilla cells prepared in a similar manner to Example 5 were seeded in a 96-well U-bottom microplate for cell culture (from Sumitomo Bakelite Co., Ltd.) at 6,000 cells/well and centrifuged with a plate centrifuge at room temperature and at a rotating speed of 1,000 rpm for 1 minute to yield three-dimensional hair papilla cell spheroids. The spheroids were cultured for 3 days by using each of test solutions A1 to A3 that were hair papilla cell culture media to which D-chiro-inositol dissolved in PBS was added at a final concentration of 0.05 wt %, 0.1 wt %, or 1 wt %; test solutions B1 to B3 that were hair papilla cell culture media to which myo-inositol dissolved in PBS was added at a final concentration of 0.05 wt %, 0.1 wt %, or 1 wt %; and a negative control that was a hair papilla cell culture medium to which PBS alone was added. The spheroids after culturing for 3 days were imaged by using a VHX2000 digital microscope (Keyence Corporation), and the area of the spheroids was calculated by using a digital microscope analysis tool. By calculating a spheroid area increase rate in the test solutions A1 to A3 and B1 to B3, relative to an area increase rate in the negative control as 100%, the proliferation of hair papilla cells in conditions further close to in vivo condition was quantified.

Setting [4] is: 5 wt % in 50% ethanol, second hair cycle.
[5] abbreviates: 5 wt % in 50% ethanol, third hair cycle (reproducibility).
The mark [6] stands for this setting: 5 wt %, third hair cycle (reproducibility).
Where [7] appears, read: 1 wt % in 50% ethanol, second hair cycle.
The mark [8] stands for this setting: 1 wt % in 50% ethanol, third hair cycle (reproducibility).
[9] abbreviates: 1 wt %, third hair cycle (reproducibility).

With `OC1C(O)C(O)C(O)C(O)C1O` [L-chiro-inositol], the “Hair growth activity (hair shaft growth rate and maximum length vs reference data)” value in experiment [1] (5 wt %) was “hair growth activity was not confirmed”. Further, the “Hair shaft growth rate” value in experiment [1] (setting [4]) is listed as 0.33 ± 0.08 mm/day; in experiment [1] (setting [5]), 0.33 ± 0.13 mm/day. For the same compound, the “Hair shaft maximum length” value in experiment [1] (5 wt %, second hair cycle) came out at 4.9 ± 0.7 mm; in experiment [1] (setting [6]), 4.8 ± 0.8 mm.
Consider `OC1C(O)C(O)C(O)C(O)C1O` (stereo not drawn) [allo-inositol, cis-1,2,3,4-trans-5,6-cyclohexaneheaxol], for which the “Hair shaft growth rate” value in experiment [1] (setting [7]) amounted to 0.37 ± 0.03 mm/day; in experiment [1] (setting [8]), 0.40 ± 0.04 mm/day; in experiment [1] (setting [4]), 0.43 ± 0.02 mm/day; in experiment [1] (setting [5]), 0.40 ± 0.03 mm/day. Moreover, the “Hair shaft maximum length” value is 5.0 ± 0.5 mm in experiment [1] (1 wt %, second hair cycle); 5.2 ± 0.5 mm in experiment [1] (setting [9]); 5.5 ± 0.3 mm in experiment [1] (5 wt %, second hair cycle); 5.5 ± 0.8 mm in experiment [1] (setting [6]). In addition, the “Hair growth activity (hair shaft growth rate and maximum length vs reference data)” value in experiment [1] (5 wt % or 1 wt %) is reported as “hair growth activity was not confirmed”.
As to `OC1C(O)C(O)C(O)C(O)C1O` (stereo not drawn) [epi-inositol, cis-1,2,3,4,5-trans-6-cyclohexanehexaol], the “Hair shaft growth rate” value in experiment [1] (setting [7]) is reported as 0.43 ± 0.06 mm/day; in experiment [1] (setting [8]) it was 0.45 ± 0.09 mm/day; in experiment [1] (setting [4]) it was 0.33 ± 0.09 mm/day; in experiment [1] (setting [5]), 0.32 ± 0.09 mm/day. The “Hair shaft maximum length” value in experiment [1] (1 wt %, second hair cycle) is listed as 5.2 ± 0.3 mm; in experiment [1] (setting [9]) it was 5.3 ± 0.4 mm; in experiment [1] (5 wt %, second hair cycle), 4.7 ± 0.6 mm; in experiment [1] (setting [6]), 4.5 ± 0.6 mm. Also, the “Hair growth activity (hair shaft growth rate and maximum length vs reference data)” value in experiment [1] (5 wt % or 1 wt %) is on record as “hair growth activity was not confirmed”.
Regarding `CN(C)C(=N)N=C(N)N` [metformin], in the experiment with obese mice, the “Effect on hair loss” value was “prevented hair loss or slowed progress of hair loss”.
Regarding `OC1C(O)C(O)C(O)C(O)C1O` (stereo not drawn) [muco-inositol, cis-1,2,4,5-trans-3,6-cyclohexanehexaol], in experiment [1] (5 wt %), the “Hair growth activity (hair shaft growth rate and maximum length vs reference data)” value is “hair growth activity was not confirmed”. Besides, the “Hair shaft growth rate” value amounted to 0.35 ± 0.03 mm/day in experiment [1] (setting [4]) and 0.36 ± 0.10 mm/day in experiment [1] (setting [5]). Moreover, the “Hair shaft maximum length” value turned out to be 4.9 ± 0.3 mm in experiment [1] (5 wt %, second hair cycle) and 5.1 ± 0.3 mm in experiment [1] (setting [6]).
With `O[C@H]1[C@H](O)[C@@H](O)[C@H](O)[C@@H](O)[C@H]1O` [myo-inositol, cis-1,2,3,5-trans-4,6-cyclohexanehexaol], the “Hair shaft growth rate” value in experiment [1] (setting [7]) was 0.45 ± 0.03 mm/day; in experiment [1] (setting [8]), 0.44 ± 0.08 mm/day; in experiment [1] (setting [4]), 0.37 ± 0.05 mm/day; in experiment [1] (setting [5]), 0.39 ± 0.06 mm/day. The “Hair shaft maximum length” value is listed as 4.9 ± 0.5 mm in experiment [1] (1 wt %, second hair cycle); 5.0 ± 0.5 mm in experiment [1] (setting [9]); 4.6 ± 0.5 mm in experiment [1] (5 wt %, second hair cycle); 4.7 ± 0.5 mm in experiment [1] (setting [6]). Besides, the “Hair growth activity (hair shaft growth rate and maximum length vs reference data)” value in experiment [1] (5 wt % or 1 wt %) is “hair growth activity was not confirmed”. Also, in experiment [2], the “New hair growth rate” value is 107.1%. Moreover, the “Hair papilla cell proliferation rate vs negative control” value in the experiment on hair papilla cells is “no significant difference was observed”. In experiment [3], the “Hair papilla cell spheroid area vs negative control” value is listed as “no significant differences were observed”.
Regarding `O[C@H]1[C@H](O)[C@@H](O)[C@H](O)[C@@H](O)[C@@H]1O` [scyllo-inositol, cis-1,3,5-trans-2,4,6-cyclohexanehexaol], the “Hair growth activity (hair shaft growth rate and maximum length vs reference data)” value in experiment [1] (5 wt %) is “hair growth activity was not confirmed”. Moreover, the “Hair shaft growth rate” value in experiment [1] (setting [4]) and in experiment [1] (setting [5]) was 0.35 ± 0.09 mm/day throughout. Besides, the “Hair shaft maximum length” value is 4.4 ± 0.3 mm in experiment [1] (5 wt %, second hair cycle) and 4.4 ± 0.5 mm in experiment [1] (setting [6]).
